The text below walks through data of patent US5621133A (priority 1995, dated 1997).

Molecules are shown by their SMILES. Where a name gives a salt, the structure may show the parent alone. Read-outs that look alike come from different tables or passages of the source.

Experiment [1] concerns the target dopamine D-1 receptor (Rattus norvegicus, UniProt P18901). The experiment is described as follows: biochemical. To be noted: D-1 Ki, rat caudate, [125I]SCH-23982.
From the text: The compounds compete with the radiolabeled ligand for occupancy of the receptors and the molar potency of each compound was quantified.
The Ki values are inversely proportional to the affinity of the compound for the receptor.
The next experiment deals with dopamine D-2 receptor (Rattus norvegicus, UniProt P61169). Briefly: biochemical. It counts as binding. On the procedure: Homogenized rat caudate was the source of the D-2 receptors. […] The molar affinity of the compound for the receptor binding site was calculated by the same method used for the D-1 receptor assay, assuming a competitive interaction between the compound and the radiolabeled ligand.
Sequence of dopamine D-2 receptor (P61169 whole entry): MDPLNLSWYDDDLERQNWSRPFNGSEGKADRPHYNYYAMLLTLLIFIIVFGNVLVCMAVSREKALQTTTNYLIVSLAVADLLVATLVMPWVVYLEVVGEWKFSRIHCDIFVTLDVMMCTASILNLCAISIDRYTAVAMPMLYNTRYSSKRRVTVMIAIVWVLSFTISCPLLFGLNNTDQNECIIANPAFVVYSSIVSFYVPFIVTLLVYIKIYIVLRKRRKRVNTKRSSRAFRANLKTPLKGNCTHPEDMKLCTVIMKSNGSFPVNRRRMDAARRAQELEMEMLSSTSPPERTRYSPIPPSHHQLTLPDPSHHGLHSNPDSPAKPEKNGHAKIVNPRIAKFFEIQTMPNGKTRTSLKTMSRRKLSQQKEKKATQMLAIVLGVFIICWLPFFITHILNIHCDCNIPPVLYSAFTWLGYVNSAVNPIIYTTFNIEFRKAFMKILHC

Experiment [2] has as its system dopamine D-1 receptor. As to conditions: for Intrinsic Activity (adenylate cyclase assay): dopamine = 100, goldfish retina or rat striatum; for EC50: read-out: EC50 (agonist activity in adenylate cyclase assay), tissue from goldfish retina or rat striatum.
Method: In order to determine agonist activity, cell-free tissue homogenates are incubated in an ionic buffer solution containing ATP and the compound being evaluated. The tissue was obtained from either goldfish retina or rat striatum.
Where [3] appears, read: rat caudate, [125I]-p-aminophenylethyl spiroperidol, read-out: D-2 Ki.

Sequence of dopamine D-1 receptor (Rattus norvegicus, UniProt P18901) (P18901 whole entry): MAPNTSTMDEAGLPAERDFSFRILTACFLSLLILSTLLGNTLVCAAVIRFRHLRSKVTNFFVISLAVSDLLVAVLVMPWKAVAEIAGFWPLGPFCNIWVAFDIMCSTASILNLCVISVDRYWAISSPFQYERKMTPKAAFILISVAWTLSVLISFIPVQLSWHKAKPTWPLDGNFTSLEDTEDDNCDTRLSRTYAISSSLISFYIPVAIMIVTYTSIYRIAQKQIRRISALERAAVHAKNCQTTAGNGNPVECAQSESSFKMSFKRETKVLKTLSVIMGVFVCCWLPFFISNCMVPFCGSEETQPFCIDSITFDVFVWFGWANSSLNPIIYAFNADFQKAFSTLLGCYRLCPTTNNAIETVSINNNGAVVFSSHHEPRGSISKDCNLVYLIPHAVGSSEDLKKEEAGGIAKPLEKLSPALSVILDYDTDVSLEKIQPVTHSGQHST

Broadly, the Ki is a dissociation constant, usually derived from enzyme kinetics or from competition with a known ligand. Broadly, the EC50 is the concentration at which the effect is half-maximal. `NC[C@H]1O[C@@H](COc2ccccc2-c2ccccc2)Cc2c1ccc(O)c2O` (relative stereo) [Example 56] gave a Ki on dopamine D-1 receptor [1] of 2200 nM. The inhibition constant Ki at dopamine D-2 receptor (setting [3]) worked out at 1300 nM. Besides, in the experiment on dopamine D-1 receptor [2], the “Intrinsic Activity (adenylate cyclase assay)” value (shortened to “Intrinsic Activity”) is reported as 46 and the 50% effective concentration (EC50) came to 430 nM.

`NCC1=CC(c2ccc3ccccc3c2)Cc2c1ccc(O)c2O` (stereo not drawn) [Example 40] gave an inhibition constant Ki on dopamine D-1 receptor [1] of 5000 nM. Further, the Ki at dopamine D-2 receptor (setting [3]) was determined as 27000 nM. Further, in the experiment with dopamine D-1 receptor [2], the “Intrinsic Activity” value is reported as 86 and the EC50 amounted to 1100 nM.

On dopamine D-1 receptor [1], `CCOC(=O)Oc1ccc2c(c1OC(=O)OCC)CC(c1ccccc1)C=C2CN` (stereo not drawn) [Example 29] returned an inhibition constant Ki of 6000 nM. Also, on dopamine D-2 receptor (setting [3]), the Ki was above 10000 nM. Besides, in the experiment with dopamine D-1 receptor [2], the “Intrinsic Activity” value was found to be 54 and the concentration for a half-maximal effect (EC50) worked out at 1000 nM.

`NC[C@@H]1O[C@H](CCC2CCCCC2)Cc2c1ccc(O)c2O` (relative stereo) [Example 91] returned an inhibition constant Ki on dopamine D-1 receptor [1] of 290 nM. Also, the inhibitory constant (Ki) on dopamine D-2 receptor (setting [3]) was above 10000 nM. In addition, in the experiment with dopamine D-1 receptor [2], the “Intrinsic Activity” value is reported as 135 and the EC50 was found to be 670 nM.

On to `NC[C@@H]1O[C@H](c2ccccc2)Cc2c1ccc(O)c2O` [Example 54], for which, at dopamine D-2 receptor (setting [3]), the Ki stood at 910 nM.

As for `CNC[C@H]1O[C@@H](C2CCCCC2)Cc2c1ccc(O)c2O` (relative stereo) [Example 111, [1,3-cis]3-Cyclohexyl-5,6-dihydroxy-1-methylaminomethyl-3,4-dihydro-1H-2-benzopyran Hydrochloride], on dopamine D-2 receptor (setting [3]), the Ki was 720 nM.

For the molecule `CC(C)(C)CC1C=C(CN)c2ccc(O)c(O)c2C1` (stereo not drawn) [Example 233], the values for the Ki on dopamine D-1 receptor [1] and on dopamine D-2 receptor (setting [3]) were 3200 nM and above 10000 nM, respectively.

As for `CCCC1(CCC)C=C(CN)c2ccc(O)c(O)c2C1` [Example 192], the Ki was 3200 nM on dopamine D-1 receptor [1] and above 10000 nM on dopamine D-2 receptor (setting [3]).

As for `CC(C)(C)[C@H]1Cc2c(ccc(O)c2O)[C@@H](CN)O1` (relative stereo) [Example 100], the Ki on dopamine D-2 receptor (setting [3]) was found to be 54000 nM.

In the case of `C=CC[C@H]1Cc2c(ccc(O)c2O)[C@@H](CN)O1` (relative stereo) [Example 101], in the experiment with dopamine D-1 receptor [2], the “Intrinsic Activity” value was 119.

As to `CCCCC[C@H]1Cc2c(ccc(O)c2O)[C@@H](CNC)O1` (relative stereo) [Example 144], the Ki at dopamine D-2 receptor (setting [3]) came to 91 nM. Moreover, the “Intrinsic Activity” value in the experiment on dopamine D-1 receptor [2] stood at 107.

For `NC[C@@H]1O[C@H](c2cccc(O)c2)Cc2c1ccc(O)c2O` (relative stereo) [Example 70], the Ki on dopamine D-2 receptor (setting [3]) came to 650 nM.

Consider `CC(C)(C)C1Cc2c(ccc(O)c2O)C(CN)O1` (stereo not drawn) [Example 102], for which the Ki on dopamine D-2 receptor (setting [3]) was above 10000 nM. Moreover, in the experiment with dopamine D-1 receptor [2], the “Intrinsic Activity” value was determined as 113.

In the case of `Oc1ccc2c(c1O)CC(C1CCCCC1)C1=C2CNCC1` (stereo not drawn) [Example 202], the inhibition constant (Ki) on dopamine D-2 receptor (setting [3]) was found to be 1600 nM. In addition, in the experiment on dopamine D-1 receptor [2], the “Intrinsic Activity” value was 84.

Consider `CCCC1(CCC)Cc2c(ccc(O)c2O)C2=C1CCNC2` [Example 208], for which the Ki on dopamine D-1 receptor [1] worked out at 530 nM; at dopamine D-2 receptor (setting [3]), 3100 nM.

Take `CC(=O)NCC1=CC(c2ccccc2)Cc2c1ccc(O)c2O` (stereo not drawn) [Example 213, 1-Acetylaminomethyl-3-phenyl-5,6-dihydroxy-3,4-dihydronaphthalene]: the “Intrinsic Activity” value with dopamine D-1 receptor [2] came to 70.

On to `CN1CCC2=C(C1)c1ccc(O)c(O)c1CC21CCCCCCCC1` [Example 248], for which the inhibitory constant (Ki) worked out at 580 nM on dopamine D-1 receptor [1] and 880 nM on dopamine D-2 receptor (setting [3]).

Regarding `COc1ccc(CC2Cc3c(ccc(O)c3O)C(CN)O2)cc1` (stereo not drawn) [Example 83], on dopamine D-2 receptor (setting [3]), the inhibition constant Ki came to 4500 nM.

On to `NCC1=CC(c2ccccc2)Cc2c1ccc(OC(=O)NCc1ccccc1)c2OC(=O)NCc1ccccc1` (stereo not drawn) [Example 30], for which the Ki was above 10000 nM on dopamine D-1 receptor [1] and 32000 nM at dopamine D-2 receptor (D-2 Ki, rat caudate, [125I]-p-aminophenylethyl spiroperidol).

Regarding `NC[C@H]1O[C@@H](C2CCCCC2)Cc2c1ccc(O)c2O` (relative stereo) [Example 50], on dopamine D-2 receptor (D-2 Ki), the Ki stood at 1200 nM.

Turning to `NC[C@H]1O[C@@H](C23CC4CC(CC(C4)C2)C3)Cc2c1cc(F)c(O)c2O` (relative stereo) [Example 106], the Ki on dopamine D-2 receptor (setting [3]) is above 10000 nM. In the experiment on dopamine D-1 receptor [2], the “Intrinsic Activity” value stood at 65.

On to `Oc1ccc2c(c1O)C[C@@H](c1ccccc1)C1=C2CNCC1` [Example 201], for which the Ki at dopamine D-2 receptor (setting [3]) stood at 1500 nM. In the experiment on dopamine D-1 receptor [2], the “Intrinsic Activity” value is given as 110.

As to `Oc1ccc2c(c1O)C[C@@H](c1ccccc1)O[C@H]2[C@@H]1CCCN1` [Example 124], the inhibition constant Ki on dopamine D-1 receptor [1] was determined as 1900 nM; on dopamine D-2 receptor (setting [3]), 470 nM.

Turning to `C=CCN(C)C[C@H]1O[C@@H](C2CCCCC2)Cc2c1ccc(O)c2O` (relative stereo) [Example 120], the Ki at dopamine D-2 receptor (setting [3]) turned out to be 3000 nM.

Take `CC(C)(C)CC1Cc2c(ccc(O)c2O)C2=C1CCNC2` (stereo not drawn) [Example 242]: the inhibitory constant (Ki) came out at 1500 nM at dopamine D-1 receptor [1] and 2000 nM on dopamine D-2 receptor (setting [3]).

For `COC(=O)CCC(=O)Oc1ccc2c(c1OC(=O)CCC(=O)OC)CC(c1ccccc1)C=C2CN` (stereo not drawn) [Example 19], the inhibitory constant (Ki) on dopamine D-1 receptor [1] was 600 nM; at dopamine D-2 receptor (setting [3]) it was above 10000 nM.

Consider `CN(C)C[C@H]1O[C@@H](CC2CCCCC2)Cc2c1ccc(O)c2O` (relative stereo) [Example 148A], for which the Ki on dopamine D-1 receptor [1] worked out at 710 nM; at dopamine D-2 receptor (setting [3]), 2600 nM.

For `Oc1ccc2c(c1O)CC1(CCCCCC1)C1CCNCC21` (stereo not drawn) [Example 252], the “Intrinsic Activity” value in the experiment on dopamine D-1 receptor [2] is given as 49.

For the molecule `NC[C@@H]1O[C@H](C23CC4CC(CC(C4)C2)C3)Cc2c1cc(F)c(O)c2O` [Example 103], the Ki on dopamine D-2 receptor (setting [3]) was determined as 2000 nM. In the experiment with dopamine D-1 receptor [2], the “Intrinsic Activity” value is reported as 88.

Regarding `Oc1ccc2c(c1O)CC(C13CC4CC(CC(C4)C1)C3)C1=C2CNCC1` (stereo not drawn) [Example 238], the results for the inhibition constant (Ki) on dopamine D-1 receptor [1] and on dopamine D-2 receptor (setting [3]) were 5100 nM and above 10000 nM, respectively.

Take `C=CCN(C)C[C@H]1O[C@@H](CCCCCC)Cc2c1ccc(O)c2O` (relative stereo) [Example 121]: in the experiment on dopamine D-1 receptor [2], the “Intrinsic Activity” value is listed as 51 and the EC50 turned out to be 21000 nM.

As for `NCC1=CC2(CCCCCC2)Cc2c1ccc(O)c2O` [Example 188, 1'-Aminomethyl-5,6'-dihydroxyspiro[cycloheptane-1,3'-(3',4'-dihydro-2'-H-naphthalene)]hydrobromide], the inhibition constant Ki on dopamine D-1 receptor [1] came to 2000 nM; at dopamine D-2 receptor (setting [3]) it was 7000 nM.

For `NC[C@@H]1O[C@H](C23CC4CC(CC(C4)C2)C3)Cc2c(O)c(O)cc(Br)c21` (relative stereo) [Example 107, 1-Aminomethyl-8-bromo-adamantyl-5,6-dihydroxy-3,4-dihydro-1H-2-benzopyran Hydrobromide], the inhibition constant Ki is 2500 nM at dopamine D-1 receptor [1] and above 10000 nM on dopamine D-2 receptor (setting [3]).

Turning to `NC[C@H]1O[C@@H](c2ccccc2)Cc2c1ccc(O)c2O` (relative stereo) [Example 49], on dopamine D-2 receptor (setting [3]), the Ki came to 1000 nM.

As to `Oc1ccc2c(c1O)CC1(CCCCCCC1)C1=C2CNCC1` [Example 207], the inhibitory constant (Ki) on dopamine D-2 receptor (setting [3]) turned out to be 1200 nM. Further, in the experiment with dopamine D-1 receptor [2], the “Intrinsic Activity” value is reported as 64.

In the case of `Oc1ccc2c(c1O)CC(c1ccccc1)C1=C2CNCC1` (stereo not drawn) [Example 239], the Ki on dopamine D-2 receptor (setting [3]) is 2000 nM. For the same molecule, the “Intrinsic Activity” value in the experiment with dopamine D-1 receptor [2] came to 103.

On to `CN1CCC2=C(C1)c1ccc(O)c(O)c1CC2CC1CCCC1` (stereo not drawn) [Example 245], for which the inhibition constant (Ki) on dopamine D-1 receptor [1] was 350 nM; on dopamine D-2 receptor (setting [3]), 180 nM.

Regarding `CC(C)(C)[C@H]1Cc2c(ccc(O)c2O)[C@@H](CN)O1` (relative stereo) [Example 48, [1,3-cis]1-Aminomethyl 3-t-butyl-5,6-dihydroxy-3,4-dihydro-1H-2-benzopyran Hydrochloride], the Ki on dopamine D-2 receptor (setting [3]) is 13000 nM. In addition, the “Intrinsic Activity” value with dopamine D-1 receptor [2] worked out at 112.

`Br.N[C@H]1CCc2cc(O)c(O)c3c2[C@H]1C[C@H](c1ccccc1)C3` (relative stereo) [Example 183, [1S*,8S*,9aR*]1-Amino-5,6-dihydroxy-8-phenyl-2,3,7,8,9,9a-hexahydrophenalene Hydrobromide]: the inhibition constant Ki on dopamine D-2 receptor (setting [3]) is above 10000 nM. In the experiment on dopamine D-1 receptor [2], the “Intrinsic Activity” value is 56.

For the molecule `Oc1ccc2c(c1O)CC(c1ccccc1)C1=C2CNCC1` (stereo not drawn) [Example 200], at dopamine D-2 receptor (setting [3]), the Ki turned out to be 3300 nM. The “Intrinsic Activity” value with dopamine D-1 receptor [2] worked out at 120.

`NC[C@@H]1O[C@H](C(c2ccccc2)c2ccccc2)Cc2c1ccc(O)c2O` (relative stereo) [Example 71]: the inhibitory constant (Ki) at dopamine D-2 receptor (setting [3]) came out at 2800 nM.

For `C#CC[C@H]1Cc2c(ccc(O)c2O)[C@@H](CN)O1` (relative stereo) [Example 110, [1,3-cis]1-Aminomethyl-5,6-dihydroxy-3-(3'-prop-1'-ynyl)-3,4-dihydro-1H-2-benzopyran Hydrochloride], the Ki on dopamine D-2 receptor (setting [3]) came out at 1100 nM.

Turning to `Br.N[C@@H]1CCc2cc(O)c(O)c3c2[C@H]1C[C@H](c1ccccc1)C3` (relative stereo) [Example 182, [1R*,8S*,9aR*]1-Amino-5,6-dihydroxy-8-phenyl-2,3,7,8,9,9a-hexahydro-phenalene Hydrobromide], the Ki on dopamine D-2 receptor (setting [3]) came out at 2200 nM. For the same molecule, the “Intrinsic Activity” value with dopamine D-1 receptor [2] is listed as 65.

For the molecule `NCC1OC(c2ccccc2)Cc2c1ccc(O)c2O` (stereo not drawn) [Example 96], the inhibition constant Ki at dopamine D-2 receptor (setting [3]) came out at 870 nM.

With `C=CCCCC[C@@H]1Cc2c(ccc(O)c2O)[C@H](CN)O1` (relative stereo) [Example 66], the Ki at dopamine D-2 receptor (setting [3]) stood at 640 nM. In addition, the “Intrinsic Activity” value with dopamine D-1 receptor [2] is 84.

As to `CCCC1(CCC)Cc2c(ccc(O)c2O)C(CN)C1` (stereo not drawn) [Example 198], the affinity on dopamine D-1 receptor [1], expressed as Ki, was 3700 nM.

With `NC[C@@H]1O[C@H](C2CCCCCCC2)Cc2c1ccc(O)c2O` (relative stereo) [Example 76], the inhibitory constant (Ki) on dopamine D-2 receptor (setting [3]) worked out at 440 nM.

For `CC(C)(C)[C@@H]1Cc2c(ccc(O)c2O)[C@H](CN)C1` (relative stereo) [Example 195], at dopamine D-1 receptor [1], the affinity corresponds to a Ki of 250 nM. Besides, in the experiment on dopamine D-1 receptor [2], the “Intrinsic Activity” value came out at 73 and the EC50 was determined as 400 nM.

For `C#CCN(C)C[C@H]1O[C@@H](C2CCCCC2)Cc2c1ccc(O)c2O` (relative stereo) [Example 119], the Ki at dopamine D-2 receptor (setting [3]) was above 10000 nM.
